Target: T1, DAPK1 (Homo sapiens, UniProt P53355)
T1 construct: purchased Thermo Fisher Scientific (Life Technologies) SelectScreen
Experiment: SelectScreen Adapta
Format: biochemical
Method: The in vitro kinase selectivity of NU5455 was determined using the SelectScreen Broad Assay Panel (Thermo Fisher Scientific) involving activity and binding assays (Supplemental Table 1). […] Class IA PI3Ks were measured using the p85α subunit.
Kinase [ATP] % Assay Kinase [ATP] % Assay Kinase [ATP] % Assay Kinase [ATP] % Assay
DNA-PK Km app 98.3 Z LATS2 n/a 4.7 L KIT D820E n/a 1.3 L GSK3B (GSK3 beta) Km app -2.5 Z
PIK3C3 (hVPS34) Km app 85.9 A PRKCZ (PKC zeta) Km app 4.7 Z GRK1 n/a 1.3 L BMPR2 n/a -2.5 L
PIK3C2B (PI3K-C2 beta) 10 28.9 A FGFR1 Km app 4.7 Z BRSK2 n/a 1.2 L CDC42 BPB (MRCKB) Km app -2.5 Z
SNF1LK2 Km app 26.6 Z MINK1 Km app 4.6 Z NUAK1 (ARK5) Km app 1.2 A AMPK (A2/B2/G2) n/a -2.6 L
HCK Km app 18.0 Z CSF1R (FMS) Km app 4.3 Z CDK9/cyclin K n/a 1.0 L PRKG1 Km app -2.7 Z
NEK2 Km app 17.8 Z CSNK1G3 (CK1 gamma 3) Km app 4.2 Z NUAK2 n/a 1.0 L KIT T670E n/a -2.8 L
ALK Km app 17.3 Z STK32C (YANK3) n/a 4.2 L CDK2/cyclin O n/a 0.9 L ERBB4 (HER4) Km app -2.8 Z
FGFR3 K650M n/a 16.5 L STK22D (TSSK1) Km app 4.2 Z CAMKK2 (CaMKK beta) n/a 0.9 L PLK4 n/a -2.8 L
SIK3 n/a 16.1 L TAOK3 (JIK) n/a 4.2 L FGFR3 Km app 0.9 Z GRK7 Km app -3.0 Z
LYN A Km app 15.2 Z RPS6KA4 (MSK2) Km app 4.2 Z ULK2 n/a 0.9 L MAPKAPK2 Km app -3.1 Z
BMPR1B (ALK6) n/a 14.5 L PTK2B (FAK2) Km app 4.2 Z KIT D816V n/a 0.9 L FGFR4 Km app -3.1 Z
INSRR (IRR) Km app 14.1 Z CLK2 Km app 4.1 Z CAMK1 (CaMK1) 10 0.8 A CASK n/a -3.1 L
PLK2 Km app 14.1 Z STK24 (MST3) Km app 4.1 Z PTK6 (Brk) Km app 0.7 Z GRK5 Km app -3.2 Z
PRKACA (PKA) Km app 14.0 Z CAMK1D (CaMKI delta) Km app 4.1 Z CAMK2B (CaMKII beta) Km app 0.7 Z EGFR (ErbB1) T790M Km app -3.3 Z
EIF2AK2 (PKR) n/a 13.3 L INSR Km app 4.1 Z ACVR1 (ALK2) n/a 0.7 L PAK4 Km app -3.3 Z
PRKX Km app 12.5 Z IRAK1 Km app 4.0 A ABL1 H396P n/a 0.6 L DAPK3 (ZIPK) Km app -3.4 Z
FGR Km app 12.1 Z SRC N1 Km app 3.9 Z MERTK (cMER) A708S n/a 0.6 L RET M918T n/a -3.5 L
CLK1 Km app 11.7 Z SRPK2 Km app 3.9 Z MAPKAPK5 (PRAK) Km app 0.6 Z PRKCQ (PKC theta) Km app -3.7 Z
MARK3 Km app 11.4 Z RPS6KA6 (RSK4) Km app 3.8 Z AKT1 (PKB alpha) Km app 0.5 Z CAMKK1 (CAMKKA) n/a -3.8 L
PDGFRB (PDGFR beta) Km app 11.0 Z GRK6 Km app 3.7 Z NTRK3 (TRKC) Km app 0.4 Z FLT3 D835Y Km app -3.9 Z
PRKCN (PKD3) Km app 10.7 Z PKN1 (PRK1) Km app 3.6 Z ZAP70 Km app 0.3 Z ROCK2 Km app -4.1 Z
STK16 (PKL12) n/a 10.5 L MAP3K8 (COT) 100 3.5 Z CSNK1A1 (CK1 alpha 1) Km app 0.3 Z CHUK (IKK alpha) Km app -4.2 A
FES (FPS) Km app 10.4 Z FLT4 (VEGFR3) Km app 3.5 Z MYLK (MLCK) n/a 0.2 L AXL Km app -4.2 Z
ABL1 Km app 10.4 Z GRK4 Km app 3.5 Z MKNK2 (MNK2) n/a 0.2 L PIM2 Km app -4.3 Z
MUSK Km app 10.3 Z FRK (PTK5) Km app 3.4 Z AMPK (A1/B1/G3) n/a 0.2 L PAK1 Km app -4.4 Z
MAPK1 (ERK2) Km app 10.1 Z FYN A n/a 3.3 L MAP3K2 (MEKK2) n/a 0.1 L BMPR1A (ALK3) n/a -4.4 L
BRAF 100 9.9 Z CDK1/cyclin A2 n/a 3.3 L CDK8/cyclin C n/a 0.1 L STK4 (MST1) Km app -4.4 Z
IGF1R Km app 9.7 Z KIT V559D T670I n/a 3.1 L MARK2 Km app 0.1 Z PRKCH (PKC eta) Km app -4.6 Z
MAPK14 (p38 alpha) Km app 9.7 Z SPHK2 10 3.1 A ICK n/a 0.0 L SGKL (SGK3) Km app -4.6 Z
LCK Km app 9.6 Z FGFR3 G697C n/a 3.1 L FGFR2 Km app 0.0 Z PI4KB (PI4K beta) Km app -4.7 A
MAPK11 (p38 beta) Km app 9.5 Z RIPK2 n/a 3.1 L AKT2 (PKB beta) Km app 0.0 Z PRKCE (PKC epsilon) Km app -4.9 Z
SRC Km app 9.5 Z PAK6 Km app 3.0 Z EPHB2 Km app -0.1 Z PHKG1 Km app -5.0 Z
CHEK1 (CHK1) Km app 9.3 Z LYN B Km app 3.0 Z TGFBR2 n/a -0.1 L PDGFRA D842V Km app -5.0 Z
CAMK2D (CaMKII delta) Km app 9.3 Z DAPK2 n/a 2.9 L TEK (Tie2) Km app -0.1 Z PRKG2 (PKG2) Km app -5.1 Z
PLK1 Km app 9.2 Z EPHA4 Km app 2.9 Z AURKA (Aurora A) Km app -0.1 Z TYRO3 (RSE) Km app -5.1 Z
RET Y791F Km app 9.2 Z PIK3CG (p110 gamma) Km app 2.9 A KIT D816H n/a -0.2 L TAOK2 (TAO1) Km app -5.1 Z
FLT3 Km app 9.1 Z HIPK1 (Myak) Km app 2.8 Z KIT N822K n/a -0.2 L EPHB4 Km app -5.3 Z
MAPK10 (JNK3) 100 9.0 Z ADRBK2 (GRK3) Km app 2.8 Z PRKACG (PRKAC gamma) n/a -0.2 L AURKC (Aurora C) Km app -5.4 Z
CSNK2A2 (CK2 alpha 2) Km app 8.7 Z STK17B (DRAK2) n/a 2.7 L TEK (TIE2) Y1108F n/a -0.3 L JAK1 Km app -5.7 Z […]

T1 sequence (P53355 whole entry): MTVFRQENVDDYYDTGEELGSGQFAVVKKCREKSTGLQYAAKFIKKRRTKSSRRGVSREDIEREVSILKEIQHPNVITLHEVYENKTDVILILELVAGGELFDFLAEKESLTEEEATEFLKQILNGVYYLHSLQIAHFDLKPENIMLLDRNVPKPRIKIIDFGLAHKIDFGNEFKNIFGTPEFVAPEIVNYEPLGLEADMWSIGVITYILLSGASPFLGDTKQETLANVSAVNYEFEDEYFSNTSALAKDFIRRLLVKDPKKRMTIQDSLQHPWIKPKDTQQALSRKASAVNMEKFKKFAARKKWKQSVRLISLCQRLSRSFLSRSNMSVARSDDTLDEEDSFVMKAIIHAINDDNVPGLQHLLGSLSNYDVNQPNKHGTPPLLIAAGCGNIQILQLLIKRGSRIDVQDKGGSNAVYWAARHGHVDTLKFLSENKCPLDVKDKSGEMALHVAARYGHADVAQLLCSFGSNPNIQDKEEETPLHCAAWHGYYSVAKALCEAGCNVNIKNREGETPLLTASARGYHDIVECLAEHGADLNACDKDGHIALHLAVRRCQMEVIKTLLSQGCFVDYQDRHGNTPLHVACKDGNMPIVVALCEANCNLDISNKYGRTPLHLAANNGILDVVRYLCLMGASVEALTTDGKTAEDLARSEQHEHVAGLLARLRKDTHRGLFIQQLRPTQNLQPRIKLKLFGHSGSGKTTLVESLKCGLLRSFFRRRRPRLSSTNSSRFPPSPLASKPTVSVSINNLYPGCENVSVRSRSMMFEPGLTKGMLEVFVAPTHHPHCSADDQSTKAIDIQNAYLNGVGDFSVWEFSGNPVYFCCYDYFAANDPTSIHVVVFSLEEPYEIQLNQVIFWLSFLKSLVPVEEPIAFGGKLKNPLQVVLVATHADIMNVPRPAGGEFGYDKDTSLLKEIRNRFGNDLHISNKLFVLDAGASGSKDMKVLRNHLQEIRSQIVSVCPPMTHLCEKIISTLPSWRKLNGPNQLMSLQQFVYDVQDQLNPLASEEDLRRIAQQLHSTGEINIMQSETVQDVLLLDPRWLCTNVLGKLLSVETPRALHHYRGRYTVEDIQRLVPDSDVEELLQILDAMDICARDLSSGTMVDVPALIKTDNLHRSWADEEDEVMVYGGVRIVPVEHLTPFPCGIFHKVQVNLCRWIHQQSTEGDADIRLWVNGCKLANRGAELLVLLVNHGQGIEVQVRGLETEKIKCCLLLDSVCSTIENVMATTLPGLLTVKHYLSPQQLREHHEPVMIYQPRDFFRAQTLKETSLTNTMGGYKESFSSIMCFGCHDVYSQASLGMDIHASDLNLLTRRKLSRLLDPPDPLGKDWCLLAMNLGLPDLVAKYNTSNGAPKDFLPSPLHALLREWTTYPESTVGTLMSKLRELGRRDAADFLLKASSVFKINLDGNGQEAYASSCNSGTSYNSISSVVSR

Compound: CN(C(=O)CN1CCOCC1)c1ccc2sc3c(-c4cccc5c(=O)cc(N6CC7CCC(C6)O7)oc45)cccc3c2c1 [NU5455]
- inhibition at 1 µM: 1.6%

— paper PMC6934184, “Selective DNA-PKcs inhibition extends the therapeutic index of localized radiotherapy and chemotherapy” (The Journal of Clinical Investigation, 2019)
